Results on one molecule are retold here after patent US8604048B2, “Pyridocarbazole type compounds and applications thereof” (Centre National de la Recherche Scientifique, priority 2009, dated 2013).

Assay [1] relates to MES-SA cells. Kind of assay: Cell growth test (MTT), MES-SA. It is filed as cell-based. To be noted: Homo sapiens, MTT test after 48 h, read-out: IC50 (concentration necessary to inhibit 50% of cell growth). The method, then: (§1) The cell growth tests are carried out in transparent 96-well microplates (Greiner) after having seeded 100 μl/well of a cell solution having 2·10^5 cells/ml to 5·10^5 cells/ml (depending on the cell lines). After incubating for 24 h at 37° C. with 5% CO2, the culture medium is removed and replaced with solutions of the molecule to be tested at various concentrations. The cells are incubated with these molecules for an additional 48 h at 37° C. with 5% CO2. After elimination of the medium, the cells are washed with blank RPMI (Gibco, Invitrogen) then incubated with 3-(4,5-dimethylthiazol-2-yl)-2,5-diphenyltetrazolium bromide or MTT (0.5 mg/ml final concentration) for 4 h at 37° C. with 5% CO2. MTT (Sigma Aldrich) makes it possible to estimate the viability of the cells by measuring the activity of a mitochondrial enzyme. Indeed, in living cells, mitochondrial dehydrogenases are capable of cleaving the tetrazolium ring, thus leading to the formation of formazan crystals that are insoluble in an aqueous medium. These crystals are dissolved with the addition of a solubilizing solution (isopropanol, 10% Triton X100, 0.1 N HCl). After stirring, the absorbance is measured at 570 nm using the FLUOstar OPTIMA microplate reader. […]
(§2) The viability of the cells was evaluated using an MTT test after 48 h of exposure with various concentrations of molecules (from 100 μM to 0.001 μM). […]
Background: Tetrazolium assays rely on reduction of a dye to a coloured formazan, in cell work by metabolically active cells.

Assay [2] has as its system MES-SA DX5 cells. The experiment in a line: Cell growth test (MTT), MES-SA DX5. As to conditions: Homo sapiens; MES-SA DX5 (multi-drug resistant, P-glycoprotein), MTT test after 48 h; read-out: IC50 (concentration necessary to inhibit 50% of cell growth). The assay is classed as cell-based. As for the experimental part: as §1, §2
Assay [3] deals with microtubules of HeLa cells. Kind of assay: Resistance of microtubules to nocodazole-induced depolymerization. As to conditions: 2 h with compound then 30 minutes nocodazole. The assay is classed as cell-based, Human. As for the experimental part:
6. a step of analysis of the effect of the compound to be tested on the dynamics of the microtubule network. For this, HeLa cells are incubated for 2 h with the compound to be tested, then optionally treated with 10 μM nocodazole for 30 minutes.
FIG. 4 represents the effect of nocodazole on the microtubules of the HeLa cells treated with the Compound 1 of the invention. The HeLa cells are incubated with paclitaxel or without, with the Compound 1 of the invention for 2 h, then exposed for 30 minutes to nocodazole. The amount of tubulin in the cells treated with the Compound 1 of the invention is measured with a microplate reader, then reported as a percentage of the amount of tubulin measured in the wells containing the cells treated with paclitaxel;
In the living cell, microtubules are dynamic structures, which oscillate between assembling and disassembling phases. Various types of tests may be carried out in order to assess the stabilizing effect of the molecules on the microtubule network. Thus, the binding of paclitaxel to the microtubules, or the binding of stabilizing proteins such as STOP proteins (Bosc et al., 2003) may protect the microtubule network from a depolymerization induced by an incubation of the cells at 4° C. […]

In assay [4] the test system is Glu-tubulin signal in HeLa cells. The experiment in a line: Glu-tubulin dose-effect, immunofluorescence in microplates. It is filed as cell-based, Human. To be noted: 2 h, highest concentrations. As for the experimental part:
HeLa cells are seeded in black-bottomed black 96-well microplates (Greiner 655086) by distributing 90 μl per well of a cell solution containing 40 000 cells/ml, and incubated at 37° C. with 5% CO2. 24 h later, the cells are incubated with the molecules to be tested for 2 h at 37° C. with 5% CO2. The cells are then permeabilized with warm OPT buffer for 6 minutes at 37° C. then fixed in methanol for 10 minutes at room temperature. The cells are rinsed twice with PBS/0.1% Tween® 20 and incubated with the primary antibodies YL1/2 and L4 (cf. the antibodies from Table III) diluted to 1/4000 in a solution of PBS/0.3% BSA/0.02% NaN3 overnight at 37° C. […] The various fluorescence intensities are measured using the FLUOstar OPTIMA reader. […]
A dose-effect curve measuring the variation of the amount of Glu-tubulin was produced for Compound 1 of the invention. […] The fluorescence intensity was then measured using the microplate reader.
The percentage of the signal measured represents its distance relative to the control of bioactivity (paclitaxel (Taxol®)) and to the control of bioinactivity (DMSO). The EC50 was determined using KaleidaGraph® 3.60 software.

Molecules are shown by their SMILES.

`Cc1c2cc[nH]c(=O)c2c(C)c2c1[nH]c1ccc(OC(=O)c3ccccc3)cc12` [Compound 1, 9-benzoyloxy-5,11-dimethyl-2H,6H-pyrido[4,3-b]carbazol-1-one]: the IC50 in assay [1] stood at 26 µM; in assay [2], 27.4 µM. In addition, the “Protection of microtubules from nocodazole-induced depolymerization” value in assay [3] is recorded as “prevents, in a dose-dependent manner”. Moreover, the “Increase in the Glu signal relative to paclitaxel” value in assay [4] was “slightly smaller than that of paclitaxel”.
